Laboratory results from patent publication US8846653B2, “Delta-tocotrienol treatment and prevention of pancreatic cancer” (University of South Florida, priority 2006, dated 2014).

What was measured:
[1] = tested on: SW1990 pancreatic cancer cells; experiment: MTS assay of SW1990 cultures, single 50 μM dose; assay type: cell-based, human; details: SW1990, 50 μM
Protocol: SW1990 pancreatic cancer cells […] were cultured in complete DMEM media containing 10% fetal bovine serum (FBS) and 1% penicillin-streptomycin, and 1% L-glutamine. BxPc-3 pancreatic cancer cells were cultured in complete RPMI media containing 10% fetal bovine serum (FBS), and 1% penicillin-streptomycin, 1% HEPES buffer, 1% sodium pyruvate and 1% L-glutamine. HPDE6-C7 cells were cultured in serum-free keratinocyte SFM media. All cells were maintained at 37° C. in a humidified incubator with 5% CO2. The cells were treated with a single 50 μM dose of vehicle (ethanol extracted olive oil), T3 alpha (alpha tocotrienol), T3 beta (beta tocotrienol), T3 gamma (gamma tocotrienol), T3 delta (delta tocotrienol), T alpha (alpha tocopherol), T beta (beta tocopherol), TS (tocopherol succinate), GG (geranylgeraniol), SA (succinic acid). A control culture (i.e., only vehicle with no treatment) was grown alongside the treatments for comparison. Cell viability was measured using MTS assay at preselect times of 24, 48, or 72 hours after treatment.

[2] = tested on: human pancreatic ductal epithelial cells transformed with oncogenic K-ras (HPDE-K-ras); experiment: Proliferation (MTT) of K-ras transformed ductal epithelial cells; assay type: cell-based; details: 72 hours
Protocol: FIGS. 36A and B are graphs showing the effect of tocotrienols on Human Pancreatic Ductal Epithelial Kras Transformed cells (MTT). (A) Tocotrienols (10-100 μM) had no effect on the proliferation of normal immortalized human pancreatic ductal epithelial cells at 72 hours. […] Points, means; bars, SE (n=3). *p<0.001 vs. vehicle. # p<0.02 vs. vehicle
The Ras effector pathways Raf-MEK-ERK and PI3 kinase-AKT are important for cell proliferation and survival, respectively. Pancreatic cancer cell lines (MIA PaCa2, SW1990, BXPC3) and HPDE 6C7 cells were treated with 8-tocotrienol (20 μM) and cell lysates were collected and prepared at progressive time intervals as described above. Proteins from lysates were run by SDS PAGE and immunoblotted with the following antibodies: Ras, p-cRaf (ser 338), p-MEK1/2, MEK1/2, pERK 44/42, ERK 44/42 (Cell Signaling) and c-Raf (BD Transduction Laboratories). […] The MIA PaCa2 and SW1990 cells were then tested for AKT inhibition. The cells were treated with δ-tocotrienol (20 μM) for 24 and 48 hours and cell lysates were run by SDS-PAGE and immunoblotted for p-AKT and AKT (Cell Signaling). […] Taken together, the inhibition of downstream effectors of oncogenic Ras signaling by δ-tocotrienol without an effect on Ras protein levels may indicate a negative regulatory role of 8-tocotrienol on the function of oncogenic Ras. The pancreatic ductal epithelial cell proliferative inhibition by δ-tocotrienol was tested to see if it occurs through blocking aberrant signal transduction cascades. Immortalized human pancreatic ductal epithelial cells (HPDE) and human pancreatic ductal epithelial cells that were transformed by stable transfection of a mutated K-ras oncogene (HPDE-K-ras) were used to test the. effect of tocotrienols on the proliferation of HPDE and HPDE-K-ras.

[3] = tested on: AsPc1 pancreatic cancer cells; experiment: Effect of tocotrienols on pancreatic cancer proliferation (MTT), 72 hours; assay type: cell-based, human; details: AsPc1, 40 to 100 μM, vs vehicle
Source text: (§1) FIGS. 11A and B are graphs showing the effect of tocotrienols on pancreatic cancer proliferation (MTT). […] Points, means; bars, SE (n=3).

[4] = tested on: MiaPaCa2 pancreatic cancer cells; experiment: as above; assay type: cell-based, human; details: MiaPaCa2, 40 to 100 μM, vs vehicle
Source text: as §1

[5] = tested on: MiaPaCa2 pancreatic cancer cells; experiment: Malignant transformation (Soft Agar) colony formation; assay type: cell-based, human; details: MiaPaCa2, 50 μM, vs vehicle
Protocol: FIG. 20 is a graph showing the effect of tocotrienols on pancreatic cancer malignant transformation (Soft Agar). […] Bars, SE (n=3). *p<0.001 vs. vehicle. **p<0.02 vs. vehicle. ***p<0.05 vs. vehicle. T=tocopherol, T3=tocotrienol.
MiaPaCa2 cells (3×10^3) were cultured as described in the Examples above, in 96-well plates and treated with 50 μM of different tocopherol or tocotrienol.

[6] = tested on: MiaPaCa2 pancreatic cancer cells; experiment: Cell death by trypan blue assay, 72 hours; assay type: cell-based, human; details: MiaPaCa2, 50 μM
Protocol: (§2) FIGS. 38A and B are graphs showing the effect of tocotrienols on pancreatic cancer survival (Trypan Blue and Cell death ELISA). […] T3=tocotrienol, T=tocopherol, vit E=vitamin E succinate, gem=gemcitabine, 5-FU=fluorouracil.
(§3) MIA PaCa2 cells (3×10^3) were plated in 96 well plates and treated the following day with different compositions of tocoperhol, tocotrienol, gemcitabine, or fluorouracil. The cells were harvested 72 hours later and tested using trypan blue assay and cell death ELISA.

[7] = tested on: MiaPaCa2 pancreatic cancer cells; experiment: Apoptosis by cell death ELISA, 72 hours; assay type: cell-based, human; details: MiaPaCa2, 50 μM
Protocol: as §2, §3

| Compound | rel amnt (relative value set to the control) ([1]; 24 hours) | MTS assay result, run 1 ([1]; 24 hours) | MTS assay result, run 2 ([1]; 24 hours) | MTS assay result, run 3 ([1]; 24 hours) | MTS assay result, run 4 ([1]; 24 hours) | MTS assay result, run 5 ([1]; 24 hours) | MTS assay result, run 6 ([1]; 24 hours) | MTS assay result, run 7 ([1]; 24 hours) | MTS assay result, run 8 ([1]; 24 hours) | MTS assay result, run 9 ([1]; 24 hours) | rel amnt (relative value set to the control) ([1]; 48 hours) | MTS assay result, run 1 ([1]; 48 hours) | MTS assay result, run 2 ([1]; 48 hours) | MTS assay result, run 3 ([1]; 48 hours) | MTS assay result, run 4 ([1]; 48 hours) | MTS assay result, run 5 ([1]; 48 hours) | MTS assay result, run 6 ([1]; 48 hours) | MTS assay result, run 7 ([1]; 48 hours) | MTS assay result, run 8 ([1]; 48 hours) | MTS assay result, run 9 ([1]; 48 hours) | further results |
| --- | --- | --- | --- | --- | --- | --- | --- | --- | --- | --- | --- | --- | --- | --- | --- | --- | --- | --- | --- | --- | --- |
| CC(C)=CCC/C(C)=C/CC/C(C)=C/CC[C@]1(C)CCc2c(C)c(O)cc(C)c2O1 [T3 beta, beta tocotrienol] | 99 | 0.164 | 0.168 | 0.167 | 0.123 | 0.138 | 0.143 | 0.126 | 0.134 | 0.145 | 68 | 0.108 | 0.093 | 0.09 | 0.104 | 0.109 | 0.117 | 0.1 | 0.102 | 0.104 | rel amnt (relative value set to the control) ([1]; 72 hours): 69; MTS assay result, run 1 ([1]; 72 hours): 0.349; MTS assay result, run 2 ([1]; 72 hours): 0.316; MTS assay result, run 3 ([1]; 72 hours): 0.33; MTS assay result, run 4 ([1]; 72 hours): 0.298; MTS assay result, run 5 ([1]; 72 hours): 0.323; MTS assay result, run 6 ([1]; 72 hours): 0.287; MTS assay result, run 7 ([1]; 72 hours): 0.28; MTS assay result, run 8 ([1]; 72 hours): 0.275; MTS assay result, run 9 ([1]; 72 hours): 0.307; proliferation (MTT) [2]: significantly inhibited |
| CC(C)=CCC/C(C)=C/CC/C(C)=C/CC[C@]1(C)CCc2cc(O)c(C)c(C)c2O1 [T3 gamma, gamma tocotrienol] | 107 | 0.169 | 0.161 | 0.163 | 0.143 | 0.15 | 0.158 | 0.159 | 0.151 | 0.157 | 89 | 0.114 | 0.125 | 0.13 | 0.123 | 0.137 | 0.137 | 0.16 | 0.16 | 0.135 | rel amnt (relative value set to the control) ([1]; 72 hours): 177; MTS assay result, run 1 ([1]; 72 hours): 0.776; MTS assay result, run 2 ([1]; 72 hours): 0.744; MTS assay result, run 3 ([1]; 72 hours): 0.88; MTS assay result, run 4 ([1]; 72 hours): 0.734; MTS assay result, run 5 ([1]; 72 hours): 0.812; MTS assay result, run 6 ([1]; 72 hours): 0.817; MTS assay result, run 7 ([1]; 72 hours): 0.77; MTS assay result, run 8 ([1]; 72 hours): 0.759; MTS assay result, run 9 ([1]; 72 hours): 0.786; proliferation (MTT) [2]: significantly inhibited |
| Cc1c(C)c2c(c(C)c1O)CC[C@@](C)(CCC[C@H](C)CCC[C@H](C)CCCC(C)C)O2 [T alpha, alpha tocopherol] | 122 | 0.188 | 0.183 | 0.189 | 0.166 | 0.183 | 0.181 | 0.186 | 0.16 | 0.180 | 107 | 0.172 | 0.17 | 0.16 | 0.154 | 0.154 | 0.167 | 0.18 | 0.146 | 0.163 | rel amnt (relative value set to the control) ([1]; 72 hours): 103; MTS assay result, run 1 ([1]; 72 hours): 0.523; MTS assay result, run 2 ([1]; 72 hours): 0.478; MTS assay result, run 3 ([1]; 72 hours): 0.46; MTS assay result, run 4 ([1]; 72 hours): 0.453; MTS assay result, run 5 ([1]; 72 hours): 0.443; MTS assay result, run 6 ([1]; 72 hours): 0.456; MTS assay result, run 7 ([1]; 72 hours): 0.38; MTS assay result, run 8 ([1]; 72 hours): 0.451; MTS assay result, run 9 ([1]; 72 hours): 0.456; proliferation (MTT) [3]: no effect; proliferation (MTT) [4]: no effect; malignant transformation (Soft Agar) [5]: no effect; cell death (Trypan Blue) [6]: no effect; apoptosis (Cell death ELISA) [7]: no effect |
